What was measured:
human PPARα = biological target: T1, human PPARα (Homo sapiens, UniProt Q07869); test: PPARα responsive luciferase reporter gene assay (pGAL4-PPARα / pGL5-UAS 9x) in HepG2 cells; type: cell-based; conditions: relative activation to fenofibrate 10 µM (100%), HepG2, 24 h, negative value indicates inverse agonism
T1 construct: DNA constructs encoding human LBD domains of human PPARα, PPARγ, of LXRα (pGAL4-PPARα, pGAL4-PPARγ, pGAL4-LXRα); expressed in transfected cells; host or cells: HepG2
T1 sequence (Q07869 239-466 limits assumed): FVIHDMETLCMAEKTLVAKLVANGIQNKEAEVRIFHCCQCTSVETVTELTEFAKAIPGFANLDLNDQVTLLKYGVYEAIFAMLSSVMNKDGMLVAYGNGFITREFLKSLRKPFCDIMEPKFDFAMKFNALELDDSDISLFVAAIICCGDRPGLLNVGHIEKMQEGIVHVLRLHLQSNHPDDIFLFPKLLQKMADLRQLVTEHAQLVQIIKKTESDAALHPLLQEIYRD
Text: Bezafibrate, GW7647 and WY14643 are known PPARα ligands. […] GW3965 is known high-affinity LXRα ligand. […]
(§1) In HepG2 cells, luciferase gene reporter assays have been performed with the transiently transfected reporter gene luciferase construct with the UAS yeast binding site interacting with GAL4 protein (pGL5-UAS 9x, Promega). DNA constructs encoding human LBD domains of human PPARα, PPARγ, of LXRα (pGAL4-PPARα, pGAL4-PPARγ, pGAL4-LXRα) have been cotransfected with the reporter construct. For FXR, FXRE-luc construct with FXR response elements upstream of Firefly luciferase has been used together with an expression construct for human FXR for HepG2 cells transfection. HepG2 cells were then treated with compounds of the invention for 24 h.

human LXRα = biological target: T2, human LXRα (Homo sapiens, UniProt Q13133); test: LXRα luciferase reporter gene assay, inhibition of activation by GW3965 (pGAL4-LXRα / pGL5-UAS 9x) in HepG2 cells; type: cell-based; conditions: HepG2, 24 h; read-out: LXRα antagonism
T2 construct: DNA constructs encoding human LBD domains of human PPARα, PPARγ, of LXRα (pGAL4-PPARα, pGAL4-PPARγ, pGAL4-LXRα); expressed in transfected cells; host or cells: HepG2
T2 sequence (Q13133 209-447 limits assumed): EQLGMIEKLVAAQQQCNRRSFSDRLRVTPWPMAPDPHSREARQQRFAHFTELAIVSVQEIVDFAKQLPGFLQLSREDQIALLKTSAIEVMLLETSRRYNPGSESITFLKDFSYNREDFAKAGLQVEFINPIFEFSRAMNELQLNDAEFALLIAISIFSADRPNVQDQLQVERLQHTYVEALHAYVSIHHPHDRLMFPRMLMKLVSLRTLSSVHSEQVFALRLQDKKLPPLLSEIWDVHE
Experimental: Bezafibrate, GW7647 and WY14643 are known PPARα ligands. […] GW3965 is known high-affinity LXRα ligand.
Inverse agonistic/antagonistic activities of tested compounds to LXRα receptor activated by the LXRα agonist GW3965(10 µM). […] Negative value indicates inverse agonism.
as §1

[1] = system: C57BL/6J mice fed with high fat diet; test: Proof-of-concept study in mice fed with high fat diet: plasma biochemistry, weights, IPGTT; type: in vivo; conditions: HFD mice; for glucose plasma levels in Intraperitoneal Glucose Tolerance Test (IPGTT): IPGTT 1.5 g/kg BW
Text: Control group received a chow diet.
In the proof-of-concept study, after a 1-week of adaptation period, male C57BL/6J mice were randomly divided into three groups: (i) mice fed a chow diet (control; PicoLab RD 20, LabDiet) and tap water (n=4) or (ii) mice fed a high-fat diet (HFD) consisting of Western diet (AIN-76A WD, TestDiet, 20 % fat) and glucose (18.1 g/L) with fructose (24 g/L) provided in water. At week 21 on HFD diet, mice were randomly assigned into two experimental groups (10 and 11 mice per group): (ii) group on HFD, (iii) group on HFD administered with 10 mg/kg compound of EXAMPLE 37 as a salt (hydrochloride) (HFD +comp. 37). Compound of EXAMPLE 37or vehicle (1% methylcellulose) were administered once daily by oral gavage for another 3 weeks together with diets.
The i.p. Glucose tolerance test has been performed seven days before the termination of the study. For the purpose, […] of glucose dissolved in saline has been applied and blood was sampled in four intervals up to 120 minutes form tail vein. A standard glucometer was used to measure glycemia.
For biochemistry analyses, plasma liver enzyme activities were analyzed in plasma by a commercial Preventive Care Profile Plus test with Vetscan 2 device (Abaxis). Level of cholesterol and triglycerides in plasma and liver were measured by commercial kits (Erba Lachema s.r.o., Brno, Czech Republic).
Animals were sacrificed by anesthesia overdose. Plasma samples were obtained from the whole blood by centrifugation at 2,000 × g for 5 min at 4°C. The liver, gallbladder and abdominal fat were excised, weighted and immediately frozen in liquid nitrogen. All samples were stored at -80°C until analysis.

TGR5 = biological target: T3, TGR5 (Homo sapiens, UniProt Q8TDU6); test: TGR5 luciferase reporter assay; type: cell-based; conditions: relative activation to LCA 10 µM (100%), negative value indicates inverse agonism
T3 sequence (Q8TDU6 1-330): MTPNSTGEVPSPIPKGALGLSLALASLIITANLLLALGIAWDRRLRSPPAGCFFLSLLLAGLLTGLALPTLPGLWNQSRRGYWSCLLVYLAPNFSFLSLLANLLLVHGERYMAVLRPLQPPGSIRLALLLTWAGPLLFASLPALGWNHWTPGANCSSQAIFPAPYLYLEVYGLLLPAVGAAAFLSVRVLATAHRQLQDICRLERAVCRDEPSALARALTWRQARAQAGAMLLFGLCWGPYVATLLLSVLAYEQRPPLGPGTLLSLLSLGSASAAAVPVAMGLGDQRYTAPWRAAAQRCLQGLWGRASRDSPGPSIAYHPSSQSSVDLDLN

[2] = 10 mg/kg p.o. daily for 3 weeks (hydrochloride), vs HFD group

Emax at 10 µM (human PPARα): 8% | inhibition at 10 µM (human LXRα): 39% | ALP plasma levels [1, 2]: increases | Emax at 10 µM (TGR5): 10%
Structure (SMILES): C[C@@H](Oc1ccc(Oc2ccc3c(Cl)cccc3n2)cc1)C(=O)O [compound 37, (R)-2-(4-((5-Chloroquinolin-2-yl)oxy)phenoxy)propanoic acid]
ALT plasma levels [1, 2]: improves | AST plasma levels [1, 2]: improves | plasma triglyceride (TG) levels [1, 2]: significantly decreases | abdominal fat weight (AFW) ([1]; 10 mg/kg p.o. daily for 3 weeks, effect not statistically significant): decreased | body weight (BW) ([1]; 10 mg/kg p.o. daily, after three weeks of treatment): significantly decreased | glucose plasma levels in Intraperitoneal Glucose Tolerance Test (IPGTT) ([1]; after 15 minutes, 10 mg/kg p.o. daily): significantly decreased | glucose plasma levels in Intraperitoneal Glucose Tolerance Test (IPGTT) ([1]; other intervals, 10 mg/kg p.o. daily): the decrease was not statistically significant

From patent EP4583874B1, “MULTITARGET NUCLEAR RECEPTOR LIGANDS BASED ON 2-(4-(QUINOLIN-2-YLOXY)PHENOXY)PROPANOIC ACID AND 2-(4-(QUINOXALIN-2-YLOXY)PHENOXY)PROPANOIC ACID FOR THE TREATMENT OF METABOLIC AND LIVER DISEASES” (CHARLES UNIVERSITY, FACULTY OF PHARMACY IN HRADEC KRALOVE, priority 2022, dated 2024)
